In patent US20130172246A1, “INSULIN GLARGINE VERSUS METFORMIN FOR THE FIRST-LINE TREATMENT OF EARLY TYPE-2 DIABETES” (priority 2011, published 2013):

Assays:
[1] = test system: type 2 diabetes patients; experiment: Laboratory analyses in the clinical trial: HbA1c, plasma glucose, lipids, hsCRP; type: in vivo, human
Method: Test meal: On the morning of the 2nd day of the CGM, there is a standardized test meal in the trial center. This test meal (TM) consists of 95 g of whole-wheat bread, 20 g of margarine, 25 g of fruit preserves, 25 g of cheese, 200 ml of orange juice, 200 ml of milk mix with banana, strawberry or cocoa with a total of 560 Kcal. Blood is taken from the patient prior to the TM (after night-time fasting period of at least 8 hours). […] From the 1st bite, the time is measured, and after 2 h have elapsed, a 2nd blood collection is performed. During the TM and during the two hours thereafter, the patient should move as little as possible so as not to falsify the monitoring.
Fasting blood is collected between 7 and 9 o'clock in the morning when the patient turns up at the center.
Laboratory analyses: The blood samples for the clinical laboratory tests are analyzed in the central laboratory and the local laboratories according to standardized conditions. The central laboratory and the local laboratories provide on request corresponding documentation (e.g., normal value tables, round-robin test certificates in accordance with RiLiBÄK (Guidelines of the German Medical Association)) for the trial master file. The central laboratory is responsible for the collection, transport and analysis of the blood samples and instructs the trial center on sample management.
The patients were treated with either metformin (MET, 1000 mg b.i.d. (n=3)) or insulin glargine (GLA) q.d. just before bedtime (n=3). […] At the start and end of the study, the HbA1c level and the plasma glucose, proinsulin and C-peptide concentrations were determined. […] All the patients received a standardized test meal on the second day of the continuous glucose monitoring for comparison of the interindividual postprandial (pp) glucose excursions.

[2] = test system: type 2 diabetes patients; experiment: Parameters of beta-cell function (insulin, proinsulin, C-peptide, HOMA) fasting and 2 h after test meal; type: in vivo, human
Method: Below is a list of the various target parameters: • Protection of the β-cells by early insulin therapy • C-Peptide (fasting and 2 h pp after TM) • Proinsulin (fasting and 2 h pp after TM) • Glycemic variability: • Glycemic load • Standard deviation (SD), • MAGE • HbA1c • Anti-inflammatory action of insulin: • Biomarkers of subclinical inflammation (fasting and 2 h pp) • hsCRP, • PAI-1, • Leukocyte count • Back-up samples for determining • MMP9 • ADMA • Adiponectin • Effect on endothelial function • Endothelial function at ball of thumb using laser Doppler (O2C) • Effect on renal function • Microalbuminuria (albumin/creatinine ratio) • Serum creatinine • Risk of hypoglycemia • Hypoglycemic intervals (time<3 mmol glucose) during CGM over 48 hours (day 2+3 after TM) • Free fatty acids
Test meal: On the morning of the 2nd day of the CGM, there is a standardized test meal in the trial center. This test meal (TM) consists of 95 g of whole-wheat bread, 20 g of margarine, 25 g of fruit preserves, 25 g of cheese, 200 ml of orange juice, 200 ml of milk mix with banana, strawberry or cocoa with a total of 560 Kcal. Blood is taken from the patient prior to the TM (after night-time fasting period of at least 8 hours). Subsequently, the TM should be eaten within 15 min. From the 1st bite, the time is measured, and after 2 h have elapsed, a 2nd blood collection is performed. During the TM and during the two hours thereafter, the patient should move as little as possible so as not to falsify the monitoring.
• HbA1c chromatographically by HLPC (device: TOSOH A1c) • Plasma glucose by enzymatic UV test HK (device: Selectra) • Creatinine in urine by PAP test (enzyme-photometrically) (device: Selectra) • Albumin in urine (spontaneous) by immunoturbidimetric method (device: Selectra) • Microalbuminuria (calculated: albumin/creatinine ratio) • Serum creatinine enzyme-photometrically by means of creatinine PAP test (device: Selectra) • ALAT, ASAT by optimized UV method according to IFCC (device: Selectra) • Insulin by ELISA (solid-phase enzyme immunoassay; device: Anthos) • C-peptide by ELISA (solid-phase enzyme immunoassay; device: Anthos) • Proinsulin (intact) (solid-phase enzyme immunoassay; device: Anthos) • Triglycerides by GPO-PAP method (device: Selectra) • HDL cholesterol by enzymatic test (device: Selectra) • LDL cholesterol by enzymatic test (device: Selectra) • Free fatty acids by photometric method (NEFA) (device: Selektra) • hsCRP by immunoturbidimetric method (device: Selectra) • PAI-1 (plasminogen activator inhibitor active antigen) bioimmunoassay • Leukocyte count by electronic counting • Pregnancy test (urine dipstick)
In the study in the previous examples, 75 patients (45 men, 30 women, mean age: 60.7±9.2 years) were examined, whose first diagnosis of type 2 diabetes dated back to less than 5 years and whose HbA1c level was between 6.5 and 8.5%. The patients were treated with either metformin (MET, 1000 mg b.i.d. (n=3)) or insulin glargine (GLA) q.d. just before bedtime (n=3). The insulin dose was adjusted for a target plasma glucose concentration (FPG) of ≦5.6 mmol/L according to a standardized titration algorithm. At the start and end of the study, the HbA1c level and the plasma glucose, proinsulin and C-peptide concentrations were determined. […] All the patients received a standardized test meal on the second day of the continuous glucose monitoring for comparison of the interindividual postprandial (pp) glucose excursions.

[3] = per protocol, change visit 1 to visit 8, mean (SD)
[4] = per protocol, change visit 1 to visit 8, mean (SD), unit as in Table 4
[5] = per protocol, week 36, mean (SD)
[6] = per protocol, week 36, mean (SD), unit as in Table 4
[7] = per protocol, change visit 1 to visit 8, mean

CN(C)C(=N)N=C(N)N [Metformin]
HbA1c level at end of study ([1]; after 36 weeks of treatment, GLA vs. MET n.s.): 6.3% | HbA1c level at start of study ([1]; baseline value of the 'x to y' pair): 6.9% | Triglycerides - change [1, 3]: −0.2 (1.1) mmol/l | HDL - change [1, 4]: 0.1 (0.2) mmol/l | HbA1c - change [1, 4]: −0.6 (0.4) % | LDL - change [1, 4]: −0.03 (0.6) mmol/l | Plasma glucose - change, 2 h after test meal [1, 4]: −1.6 (2.5) mmol/l | Plasma glucose - change, Fasting [1, 4]: −1.4 (1.5) mmol/l | Total chol. - change [1, 4]: −0.02 (0.7) mmol/l | hsCRP - change [1, 4]: −0.2 (2.2) mg/l | Triglycerides - visit 8 [1, 5]: 1.9 (0.8) mmol/l | HDL - visit 8 [1, 6]: 1.3 (0.4) mmol/l | HbA1c - visit 8 [1, 6]: 6.3 (0.3) % | LDL - visit 8 [1, 6]: 3.1 (0.9) mmol/l | Plasma glucose - visit 8, 2 h after test meal [1, 6]: 8.4 (2.1) mmol/l | Plasma glucose - visit 8, Fasting [1, 6]: 7.2 (1.0) mmol/l | Total chol. - visit 8 [1, 6]: 5.3 (1.0) mmol/l | hsCRP - 8th visit [1, 6]: 3.1 (5.2) mg/l | reduction in the FPG level (Δ) ([1]; start to end of study (36 weeks), GLA vs. MET p<0.001): 1.4 ± 1.5 mmol/L | ratio of proinsulin to C-peptide ([2]; after treatment, indicating improvement in beta-cell function): significant reduction | Insulin-C-peptide ratio - change, 2 h after test meal [2, 7]: −38956.8 | Insulin-C-peptide ratio - change, Fasting [2, 7]: −25386.1 | Proinsulin-C-peptide ratio - change, 2 h after test meal [2, 7]: −1668.7 | Proinsulin-C-peptide ratio - change, Fasting [2, 7]: −1386.3 | HOMA - change [2, 3]: 4.4 (19.5) | Insulin-proinsulin ratio - change, 2 h after test meal [2, 3]: 3.0 (8.4) | Insulin-proinsulin ratio - change, Fasting [2, 3]: 2.9 (7.6) | C-peptide - change, 2 h after test meal [2, 4]: −0.1 (2.0) nmol/l | C-peptide - change, Fasting [2, 4]: −0.3 (0.8) nmol/l | Insulin - change, 2 h after test meal [2, 4]: −11.1 (30.2) mU/l | Insulin - change, Fasting [2, 4]: −2.7 (3.6) mU/l | Proinsulin - change, 2 h after test meal [2, 4]: −6.9 (14.5) pmol/l | Proinsulin - change, Fasting [2, 4]: −3.2 (4.2) pmol/l | Insulin-C-peptide ratio - visit 8, 2 h after test meal ([2]; per protocol, week 36, mean): 41915.2 | Insulin-C-peptide ratio - visit 8, Fasting ([2]; per protocol, week 36, mean): 25456.9 | Proinsulin-C-peptide ratio - visit 8, 2 h after test meal ([2]; per protocol, week 36, mean): 2458.1 | Proinsulin-C-peptide ratio - visit 8, Fasting ([2]; per protocol, week 36, mean): 2142.4 | HOMA - visit 8 [2, 5]: 56.3 (34.5) | Insulin-proinsulin ratio - visit 8, 2 h after test meal [2, 5]: 24.7 (27.1) | Insulin-proinsulin ratio - visit 8, Fasting [2, 5]: 16.7 (17.4) | C-peptide - visit 8, 2 h after test meal [2, 6]: 7.9 (3.4) nmol/l | C-peptide - visit 8, Fasting [2, 6]: 2.7 (1.1) nmol/l | Insulin - visit 8, 2 h after test meal [2, 6]: 50.8 (39.7) mU/l | Insulin - visit 8, Fasting [2, 6]: 10.0 (6.0) mU/l | Proinsulin - visit 8, 2 h after test meal [2, 6]: 20.4 (19.9) pmol/l | Proinsulin - visit 8, Fasting [2, 6]: 5.8 (4.6) pmol/l
